Patent US20230373985A1 (Origenis Gmbh, priority 2020, published 2023)

What follows are compounds tested against T1, wt human TYK2, catalytic site (Homo sapiens, UniProt P29597) (assay: HTRF KinEASE assay, TYK2). Conditions: 1 μM ATP; read-out: IC50, Activity Toward TYK2.
T1 construct: wt human TYK2, catalytic site; purchased SignalChem
T1 sequence (P29597 897-1176 limits assumed): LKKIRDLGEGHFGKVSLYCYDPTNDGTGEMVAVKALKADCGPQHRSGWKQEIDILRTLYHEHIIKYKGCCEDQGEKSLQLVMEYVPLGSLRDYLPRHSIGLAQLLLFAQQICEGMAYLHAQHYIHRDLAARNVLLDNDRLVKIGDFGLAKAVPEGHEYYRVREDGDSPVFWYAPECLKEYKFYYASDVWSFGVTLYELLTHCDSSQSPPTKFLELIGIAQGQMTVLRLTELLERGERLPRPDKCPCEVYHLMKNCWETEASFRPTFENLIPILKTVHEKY
Type: biochemical
Protocol: Basic protocol for HTRF KinEASE assay (Cisbio/FRA) inhibitor studies involved two steps: • Enzymatic step: Addition of 4 μL of test compound in corresponding DMSO dilutions, 4 μL of kinase/substrate mixture, 2 μL of ATP into 384 well small volume plates. Incubation for at least 30 minutes at room temperature. • Detection step: Addition of 5 μL antibody and 5 μL streptavidin-XL665, read plate after 60 minutes. Data analysis of emission ratios according KinEASE assay protocol.
(§1) Kinase and assay components were adjusted to final concentrations according to kit protocol. For TYK2: 2 nM wt human TYK2, catalytic site (SignalChem/CAN), 1 μM HTRF KinEASE-TK Substrate-biotin, 1 μM ATP in 1× Kinase Buffer. For JAK1: 4 nM wt human JAK1, catalytic site (ThermoFisher/USA), 1 μM HTRF KinEASE-TK Substrate-biotin, 2.5 μM ATP in 1× Kinase Buffer. For JAK2: 1 nM wt human JAK2, catalytic site (SignalChem/CAN), 1 μM HTRF KinEASE-TK Substrate-biotin, 100 μM ATP in 1× Kinase Buffer.
as §1
Work on `CCn1nc(C(F)(F)F)nc1-c1ccc(Nc2cn(-c3c(F)cccc3Cl)nc2C(N)=O)cc1` [compound 289, 1-(2-chloro-6-fluorophenyl)-4-((4-(1-ethyl-3-(trifluoromethyl)-1H-1,2,4-triazol-5-yl)phenyl)amino)-1H-pyrazole-3-carboxamide] yielded an IC50 of 0.1 to 1 µM. `NC(=O)c1nn(-c2c(Cl)cccc2Cl)cc1Nc1ccc(-n2nc3c(c2C(F)(F)F)CCCC3)cc1` [compound 236, 1-(2,6-dichlorophenyl)-4-((4-(3-(trifluoromethyl)-4,5,6,7-tetrahydro-2H-indazol-2-yl)phenyl)amino)-1H-pyrazole-3-carboxamide] showed an IC50 of 0.1 to 1 µM. `CC(C)c1nc(C(F)(F)F)nn1-c1ccc(Nc2cn(-c3c(Cl)cccc3Cl)nc2C(N)=O)cc1` [compound 274, 1-(2,6-dichlorophenyl)-4-((4-(5-isopropyl-3-(trifluoromethyl)-1H-1,2,4-triazol-1-yl)phenyl)amino)-1H-pyrazole-3-carboxamide] showed an IC50 of 0.1 to 1 µM. With `CCOc1cccc(Cl)c1-n1cc(Nc2cnn(C)c2)c(C(N)=O)n1` [compound 372, 1-(2-chloro-6-ethoxyphenyl)-4-((1-methyl-1H-pyrazol-4-yl)amino)-1H-pyrazole-3-carboxamide] the IC50 was 0.1 to 1 µM. `CCCn1cc(C(F)(F)F)nc1-c1ccc(Nc2cn(-c3c(Cl)cccc3Cl)nc2C(N)=O)cc1` [compound 311, 1-(2,6-dichlorophenyl)-4-((4-(1-propyl-4-(trifluoromethyl)-1H-imidazol-2-yl)phenyl)amino)-1H-pyrazole-3-carboxamide] gave an IC50 of 0.1 to 1 µM. Compound `NC(=O)c1nn(-c2c(Cl)cccc2Cl)cc1Nc1ccc(-n2c(=O)sc3ccccc32)cc1` [compound 201, 1-(2,6-dichlorophenyl)-4-((4-(2-oxobenzo[d]thiazol-3(2H)-yl)phenyl)amino)-1H-pyrazole-3-carboxamide] has an IC50 of 0.1 to 1 µM. Compound `CCn1nc(C(F)(F)F)nc1-c1ccc(Nc2cn(-c3c(Cl)cccc3Cl)nc2C(N)=O)cc1` [compound 278, 1-(2,6-dichlorophenyl)-4-((4-(1-ethyl-3-(trifluoromethyl)-1H-1,2,4-triazol-5-yl)phenyl)amino)-1H-pyrazole-3-carboxamide] has an IC50 of 0.1 to 1 µM. For `Cc1cc(Nc2cn(-c3ccccc3F)nc2C(N)=O)ncn1` [compound 5, 1-(2-fluorophenyl)-4-((6-methylpyrimidin-4-yl)amino)-1H-pyrazole-3-carboxamide], the IC50 was 0.1 to 1 µM. For `CN(C)CCn1cc(C(F)(F)F)nc1-c1ccc(Nc2cn(-c3c(Cl)cccc3Cl)nc2C(N)=O)cc1` [compound 306, 1-(2,6-dichlorophenyl)-4-((4-(1-(2-(dimethylamino)ethyl)-4-(trifluoromethyl)-1H-imidazol-2-yl)phenyl)amino)-1H-pyrazole-3-carboxamide], the IC50 was 0.01 to 0.1 µM. `COCc1nc(C(F)(F)F)nn1-c1ccc(Nc2cn(-c3c(Cl)cccc3Cl)nc2C(N)=O)cn1` [compound 328, 1-(2,6-dichlorophenyl)-4-((6-(5-(methoxymethyl)-3-(trifluoromethyl)-1H-1,2,4-triazol-1-yl)pyridin-3-yl)amino)-1H-pyrazole-3-carboxamide] gave an IC50 of 0.1 to 1 µM. `Cc1cc(Nc2cn(-c3c(Cl)cccc3Cl)nc2C(N)=O)cnc1-n1cccn1` [compound 346, 1-(2,6-dichlorophenyl)-4-((5-methyl-6-(1H-pyrazol-1-yl)pyridin-3-yl)amino)-1H-pyrazole-3-carboxamide] was tested, and the IC50 was 0.1 to 1 µM. `CCNC(=O)c1ccc(Nc2cn(-c3c(F)cccc3OC)nc2C(N)=O)cn1` [compound 25, 5-((3-carbamoyl-1-(2-fluoro-6-methoxyphenyl)-1H-pyrazol-4-yl)amino)-N-ethylpicolinamide] was tested, and the IC50 was 0.1 to 1 µM. `NC(=O)c1nn(-c2c(Cl)cccc2Cl)cc1Nc1ccc(N2CCCC2=O)nc1` [compound 345, 1-(2,6-dichlorophenyl)-4-((6-(2-oxopyrrolidin-1-yl)pyridin-3-yl)amino)-1H-pyrazole-3-carboxamide] was tested, and the IC50 was 0.1 to 1 µM. With `CCn1cc(C(F)(F)F)nc1-c1ccc(Nc2cn(-c3c(Cl)cccc3Cl)nc2C(N)=O)cn1` [compound 339, 1-(2,6-dichlorophenyl)-4-((6-(1-ethyl-4-(trifluoromethyl)-1H-imidazol-2-yl)pyridin-3-yl)amino)-1H-pyrazole-3-carboxamide] the IC50 was 0.1 to 1 µM. With `CC(C)n1nc(C(F)(F)F)nc1-c1ccc(Nc2cn(-c3c(Cl)cccc3Cl)nc2C(N)=O)cc1` [compound 280, 1-(2,6-dichlorophenyl)-4-((4-(1-isopropyl-3-(trifluoromethyl)-1H-1,2,4-triazol-5-yl)phenyl)amino)-1H-pyrazole-3-carboxamide] the IC50 was 0.1 to 1 µM. In the case of `NC(=O)c1nn(-c2c(F)cccc2F)cc1Nc1ccc(N)cn1` [compound 6, 4-((5-aminopyridin-2-yl)amino)-1-(2,6-difluorophenyl)-1H-pyrazole-3-carboxamide], the IC50 is reported as 0.1 to 1 µM. In the case of `CC1(C)CN(C(=O)c2ccc(Nc3cn(-c4c(Cl)cccc4Cl)nc3C(N)=O)nc2)C1` [compound 465, 1-(2,6-dichlorophenyl)-4-((5-(3,3-dimethylazetidine-1-carbonyl)pyridin-2-yl)amino)-1H-pyrazole-3-carboxamide], the IC50 is reported as 0.1 to 1 µM. `Cc1cccc2[nH]nc(-c3ccc(Nc4cn(-c5c(Cl)cccc5Cl)nc4C(N)=O)cn3)c12` [compound 427, 1-(2,6-dichlorophenyl)-4-((6-(4-methyl-3H-indazol-3-ylidene)-1,6-dihydropyridin-3-yl)amino)-1H-pyrazole-3-carboxamide] gave an IC50 of 0.1 to 1 µM. Work on `NC(=O)c1nn(-c2c(Cl)cccc2Cl)cc1Nc1ccc(C(=O)N2CC(F)(F)C(F)(F)C2)cn1` [compound 369, 1-(2,6-dichlorophenyl)-4-((5-(3,3,4,4-tetrafluoropyrrolidine-1-carbonyl)pyridin-2-yl)amino)-1H-pyrazole-3-carboxamide] yielded an IC50 of 0.1 to 1 µM. `CCc1ncnn1-c1ccc(Nc2cn(-c3c(Cl)cccc3Cl)nc2C(N)=O)cn1` [compound 343, 1-(2,6-dichlorophenyl)-4-((6-(5-ethyl-1H-1,2,4-triazol-1-yl)pyridin-3-yl)amino)-1H-pyrazole-3-carboxamide] gave an IC50 of 0.1 to 1 µM. With `NC(=O)c1nn(-c2c(Cl)cccc2Cl)cc1Nc1ccc(-n2nnc3ccccc32)cc1` [compound 81, 4-((4-(1H-benzo[d][1,2,3]triazol-1-yl)phenyl)amino)-1-(2,6-dichlorophenyl)-1H-pyrazole-3-carboxamide] the IC50 was 0.1 to 1 µM. Compound `NC(=O)c1nn(-c2c(Cl)cccc2Cl)cc1Nc1ccccc1` [compound 21, 1-(2,6-dichlorophenyl)-4-(phenylamino)-1H-pyrazole-3-carboxamide] has an IC50 of 0.1 to 1 µM. `NC(=O)c1nn(-c2c(Cl)cccc2Cl)cc1Nc1ccc(-n2cncn2)nc1` [compound 337, 4-((6-(1H-1,2,4-triazol-1-yl)pyridin-3-yl)amino)-1-(2,6-dichlorophenyl)-1H-pyrazole-3-carboxamide] showed an IC50 of 0.1 to 1 µM. `CCCc1nc(C(F)(F)F)nn1-c1ccc(Nc2cn(-c3c(Cl)cccc3Cl)nc2C(N)=O)cc1` [compound 279, 1-(2,6-dichlorophenyl)-4-((4-(5-propyl-3-(trifluoromethyl)-1H-1,2,4-triazol-1-yl)phenyl)amino)-1H-pyrazole-3-carboxamide] showed an IC50 of 0.1 to 1 µM. With `Cc1cccc2nnc(-c3ccc(Nc4cn(-c5c(Cl)cc(F)cc5Cl)nc4C(N)=O)cn3)n12` [compound 477, 1-(2,6-dichloro-4-fluorophenyl)-4-((6-(5-methyl-[1,2,4]triazolo[4,3-a]pyridin-3-yl)pyridin-3-yl)amino)-1H-pyrazole-3-carboxamide] the IC50 was 0.01 to 0.1 µM.
